From article PMC4631608 (Journal of structural and functional genomics, 2015)

Molecular target: M. tuberculosis Rv1496 (Mycobacterium tuberculosis, UniProt P9WPZ1)
Sequence (P9WPZ1 3-336): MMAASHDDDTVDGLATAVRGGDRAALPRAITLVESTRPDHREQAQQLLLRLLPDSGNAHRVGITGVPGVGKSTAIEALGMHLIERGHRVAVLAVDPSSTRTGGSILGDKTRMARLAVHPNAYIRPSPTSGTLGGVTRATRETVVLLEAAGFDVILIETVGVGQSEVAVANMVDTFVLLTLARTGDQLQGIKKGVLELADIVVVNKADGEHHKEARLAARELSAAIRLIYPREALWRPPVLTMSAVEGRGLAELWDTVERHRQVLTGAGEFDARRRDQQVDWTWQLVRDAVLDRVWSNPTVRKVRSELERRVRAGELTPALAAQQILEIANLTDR

Nc1nc2c(ncn2[C@@H]2O[C@H](COP(=O)(O)OP(=O)(O)O)[C@@H](O)[C@H]2O)c(=O)[nH]1 [GDP]
X-ray co-crystal structure, 2.45 Å: Rv1496 binds GDP via hydrogen bonds, one salt bridge, and van der Waals interactions
